These results are taken from US20250304609A1, “POLYMORPHIC FORM OF CHALCONE GLYCOSIDE COMPOUND, AND PREPARATION METHOD AND APPLICATION THEREOF” (ZHEJIANG YONGNING PHARMACEUTICAL CO., LTD., priority 2022, published 2025).

Where “and” joins values, the source holds several entries; their conditions need not be identical. Equal values may be shown once.

In one data set the test system is H9c2 cardiomyocytes. The data set can be described thus: Hoechst 33342 staining method for cell apoptosis detection (OGD/R). The format is cell-based. Here is the method:
Establishment of cellular oxygen-glucose deprivation/reperfusion (OGD/R) models. […] ischemia was simulated by incubation in a three-gas incubator (95% N2, 5% CO2) using sugar-free culture medium for 8-h culture, followed by transfer to a normal CO2 incubator for 12-h culture to simulate reperfusion.
Hoechst 33342 staining method for cell apoptosis detection. H9c2 cardiomyocytes were inoculated into a 6-well plate at a density of 2×10^5 cells/well. When the cells were completely adhered to the wall and grew to an appropriate degree of confluence, the cells were divided into a control group, a YN17 80 μg/ml group, a model group, and an OGD/R+80 μg/ml group. In the blank group, 2 mL of a fresh culture medium was added to each well and cultured in a CO2 incubator. The same amount of sugar-free DMEM was added to each well in the model group. After culture in a three-gas incubator for 8 h, the sugar-free DMEM was replaced with a fresh culture medium and transferred to a CO2 incubator for additional 12-h culture. The administration group was pretreated with different concentrations of YN17 for 24 h before OGD/R modeling. […] After the treatment of each group, staining was performed according to the instructions of the Hoechst 33342 staining solution, and the nucleus morphology and fluorescence intensity of each group were observed under a fluorescence microscope.

For data set [1], the system named is cerebral ischemia-reperfusion rat models. The data set can be described thus: Cerebral ischemia-reperfusion (MCAO) rat model, different doses of YN17. In kind it is in vivo, rats. Here is the method: Establishment of cerebral ischemia-reperfusion rat models. Rats were anesthetized with pentobarbital sodium (45 mg/kg), the neck skin was prepared, the surgical skin was disinfected with iodophor, the neck skin was cut in the middle, the neck muscles were separated, and the left common carotid artery (CCA) was separated until the branches of the internal carotid artery (ICA) and external carotid artery (ECA) were exposed. The proximal end of the common carotid artery was ligated, the distal end of the common carotid artery was clamped with an artery clip, an incision was made between the two ligated ends of the common carotid artery, the MCAO suture was inserted, and the suture was loosely ligated to the common carotid artery. The MCAO suture was inserted into the internal carotid artery, so that the suture reached the branches of the internal carotid artery to the middle cerebral artery (MCA), blocking the blood supply of the MCA and causing ischemia, the MCAO suture was fixed, and the surgical incision was sutured. After 1 h of ischemia, the MCAO suture was withdrawn into the common carotid artery to restore blood supply to the middle cerebral artery.
Drug administration. After the surgery, the rats were immediately injected with YN17 (5 mg/kg, 10 mg/kg and 20 mg/kg) via the tail vein, while the positive control group was injected with 3 mg/kg of edaravone via the tail vein. The rats were euthanized under anesthesia 24 hours after drug administration.
Animal neurobehavioral assessment. 24 hours after administration, the activity of the rats after landing was observed, and the behavior disorders of the rats were scored. The scoring method was as follows: • 0 points: no loss of neurological function and normal activity; • 1 point: failure to fully extend the left forepaw on the opposite side of the lesion; • 2 points: failure of the paralyzed side to resist the thrust from the opposite side; • 3 points: circling to the left side when crawling (tail-chasing sign); • 4 points: falling to the paralyzed side when shaking or walking; and • 5 points: trance or loss of consciousness.
Determination of the extent of cerebral infarction. The rats were euthanized under anesthesia 24 hours after drug administration. The brain was removed and rinsed with normal saline at 4° C. The brain was frozen at −80° C. for 10 min, and coronal slices with a thickness of 2 mm were cut from posterior to anterior, incubated in a 1% TTC solution for 10 min at 37° C., and fixed with formalin overnight after staining. The photos of the brain slices were taken and saved. The area of each brain slice and the area of the infarcted area were measured by Image Pro software, and the percentage of the area of focuses of infarct to the total area was calculated.

In data set [2] the test system is cerebral ischemia-reperfusion in rats. The data set can be described thus: Cerebral ischemia-reperfusion rat model, comparative test of calcium salt YN17 and sodium salt YN17-ST. The format is in vivo. As to conditions: 10 mg/kg tail vein after 1 h ischemia; 24 h; Mean ± SEM; model 51.37 ± 2.66. Here is the method:
Establishment of cerebral ischemia-reperfusion rat models. Rats were anesthetized with pentobarbital sodium (45 mg/kg), the neck skin was prepared, the surgical skin was disinfected with iodophor, the neck skin was cut in the middle, the neck muscles were separated, and the left common carotid artery (CCA) was separated until the branches of the internal carotid artery (ICA) and external carotid artery (ECA) were exposed. […]
Determination of the extent of cerebral infarction. […] The area of each brain slice and the area of the infarcted area were measured by Image Pro software, and the percentage of the area of focuses of infarct to the total area was calculated.
The models were established and administered according to the similar method described above (YN17 (10 mg/kg) and YN17-ST (10 mg/kg) were injected into the tail vein immediately after blood supply to the middle cerebral artery of the rats was restored, and 5% glucose was injected into the tail vein in the model group. The rats were euthanized under anesthesia 24 hours after drug administration, and the extent of cerebral infarction was measured. The results were as follows: […]

Turning to `O=C(/C=C/c1ccc(O)cc1)C1=C(O)C([C@@H]2O[C@H](CO)[C@@H](O)[C@H](O)[C@H]2O)=C([O-])[C@@](O)([C@@H]2O[C@H](CO)[C@@H](O)[C@H](O)[C@H]2O)C1=O.[Ca+2].[OH-]` [YN17, (S)-3,6-dihydroxy-4-((E)-3-(4-hydroxyphenyl)acryloyl)-5-oxo-6-((2R,3R,4S,5S,6R)-3,4,5-trihydroxy-6-(hydroxymethyl)tetrahydro-2H-pyran-2-yl)-2-((2S,3R,4R,5S,6R)-3,4,5-trihydroxy-6-(hydroxymethyl)tetrahydro-2H-pyran-2-yl)cyclohexyl-1,3-diene-1-hydroxycalcium], the “apoptosis characteristics of nuclei without OGD/R” value in the data set on H9c2 cardiomyocytes (80 μg/ml group without OGD/R) was “no obvious apoptosis characteristics”. Moreover, the “number of densely and heavily stained cell nuclei (apoptosis)” value in the data set with H9c2 cardiomyocytes (OGD/R + 80 μg/ml, 24 h pretreatment) is “significantly reduced”. Further, in data set [1] (5 mg/kg tail vein, 24 h after administration, 0-5 points, Mean ± SD, model 3.3 ± 0.7), the Symptom score came out at 2.8 ± 1.0. For the same molecule, in data set [1] (5 mg/kg, 10 mg/kg and 20 mg/kg, 24 h after modeling, p<0.001), the “content of GSH-px in serum” value is “significantly increase”. In addition, the “content of SOD in serum” value in data set [1] (10 mg/kg and 20 mg/kg, 24 h after modeling, p<0.001) was “significantly increase”. Moreover, the “Percentage of hemispheric tissue infarction (%)” value in data set [2] is 20.47% and 20.47 ± 3.56 %.
